# Reference: US20060014790A1, “Methods of treatment of amyloidosis using spirocyclohexane aspartyl-protease inhibitors” (priority 2004, published 2006)
# Several values for one entry are separate records, joined by “and”; a condition that tells them apart may be missing. Equal values may be shown once.
# What was measured:
# [1] = target: catE / beta-secretase (BACE); assay: CatE/BACE selectivity (ratio of IC50 values); assay type: biochemical; conditions: each value is an average of four experimental runs; multiple values = more than one experiment
# Protocol: (§1) Selectivity was calculated as a ratio of inhibition (IC50) values in which the inhibition of beta-secretase was compared to the inhibition of other aspartyl proteases.
# Selectivity is reported as the ratio of IC50(catE):IC50(BACE).
# (§2) In the following examples, each value is an average of four experimental runs and multiple values for one compound indicate that more than one experiment was conducted.
# [2] = target: catD / beta-secretase (BACE); assay: CatD/BACE selectivity (ratio of IC50 values); assay type: biochemical; conditions: each value is an average of four experimental runs; multiple values = more than one experiment
# Protocol: as §1, §2
Compound,IC50 catE/IC50 BACE [1],IC50 catD/IC50 BACE [2]
"COC1CCC(NCC(O)C(Cc2cc(F)cc(F)c2)NC(C)=O)(c2cccc(C(C)(C)C)c2)CC1 (single isomer, unassigned) [196B-3 Diastereomer A, N-[3-[1-(3-tert-Butyl-phenyl)-4-methoxy-cyclohexylamino]-1-(3,5-difluoro-benzyl)-2-hydroxy-propyl]-acetamide]",1.8 and 1.5,–
"COC1CCC(NCC(O)C(Cc2cc(F)cc(F)c2)NC(C)=O)(c2cccc(C(C)(C)C)c2)CC1 (single isomer, unassigned) [196B-4 Diastereomer B, N-[3-[1-(3-tert-Butyl-phenyl)-4-methoxy-cyclohexylamino]-1-(3,5-difluoro-benzyl)-2-hydroxy-propyl]-acetamide]",1.5,–
"CONC1CCC(NCC(O)C(Cc2cc(F)cc(F)c2)NC(C)=O)(c2cccc(C(C)(C)C)c2)CC1 (single isomer, unassigned) [196B-11 Diastereomer A, N-(4-(1-(3-tert-butylphenyl)-4-(methoxyamino)cyclohexylamino)-1-(3,5-difluorophenyl)-3-hydroxybutan-2-yl)acetamide]",7.4,–
"CONC1CCC(NCC(O)C(Cc2cc(F)cc(F)c2)NC(C)=O)(c2cccc(C(C)(C)C)c2)CC1 (single isomer, unassigned) [196B-12 Diastereomer B, N-(4-(1-(3-tert-butylphenyl)-4-(methoxyamino)cyclohexylamino)-1-(3,5-difluorophenyl)-3-hydroxybutan-2-yl)acetamide]",12.5,–
"CSC1CCC(NCC(O)C(Cc2cc(F)cc(F)c2)NC(C)=O)(c2cccc(C(C)(C)C)c2)CC1 (single isomer, unassigned) [196B-14 Diastereomer A, N-[3-[1-(3-tert-Butyl-phenyl)-4-methylsulfanyl-cyclohexylamino]-1-(3,5-difluoro-benzyl)-2-hydroxy-propyl]-acetamide]",5.5 and 3.4 and 2.9,–
"CSC1CCC(NCC(O)C(Cc2cc(F)cc(F)c2)NC(C)=O)(c2cccc(C(C)(C)C)c2)CC1 (single isomer, unassigned) [196B-15 Diastereomer B, N-[3-[1-(3-tert-Butyl-phenyl)-4-methylsulfanyl-cyclohexylamino]-1-(3,5-difluoro-benzyl)-2-hydroxy-propyl]-acetamide]",2.4 and > 2.5 and 2.3,–
"CNC1CCC(NCC(O)C(Cc2cc(F)cc(F)c2)NC(C)=O)(c2cccc(C(C)(C)C)c2)CC1 (single isomer, unassigned) [196B-16 Diastereomer A, N-(4-(1-(3-tert-butylphenyl)-4-(methylamino)cyclohexylamino)-1-(3,5-difluorophenyl)-3-hydroxybutan-2-yl)acetamide]",>4.7,–
"CNC1CCC(NCC(O)C(Cc2cc(F)cc(F)c2)NC(C)=O)(c2cccc(C(C)(C)C)c2)CC1 (single isomer, unassigned) [196B-17 Diastereomer B, N-(4-(1-(3-tert-butylphenyl)-4-(methylamino)cyclohexylamino)-1-(3,5-difluorophenyl)-3-hydroxybutan-2-yl)acetamide]",1.8,–
"CC(=O)NC(Cc1cc(F)cc(F)c1)C(O)CNC1(c2cccc(C(C)(C)C)c2)CCC(N)CC1 (single isomer, unassigned) [196B-18 Diastereomer A, N-(4-(1-(3-tert-butylphenyl)-4-aminocyclohexylamino)-1-(3,5-difluorophenyl)-3-hydroxybutan-2-yl)acetamide]",>8.4,–
"CC(=O)NC(Cc1cc(F)cc(F)c1)C(O)CNC1(c2cccc(C(C)(C)C)c2)CCC(N)CC1 (single isomer, unassigned) [196B-19 Diastereomer B, N-(4-(1-(3-tert-butylphenyl)-4-aminocyclohexylamino)-1-(3,5-difluorophenyl)-3-hydroxybutan-2-yl)acetamide]",>8.4,–
"CC(=O)NC(Cc1cc(F)cc(F)c1)C(O)CNC1(c2cccc(C(C)(C)C)c2)CCC(C(F)(F)F)CC1 (single isomer, unassigned) [196B-21 Diastereomer A, N-(4-(1-(3-tert-butylphenyl)-4-(trifluoromethyl)cyclohexylamino)-1-(3,5-difluorophenyl)-3-hydroxybutan-2-yl)acetamide]",6.4,–
"CC(=O)NC(Cc1cc(F)cc(F)c1)C(O)CNC1(c2cccc(C(C)(C)C)c2)CCC(C(F)(F)F)CC1 (single isomer, unassigned) [196B-22 Diastereomer B, N-(4-(1-(3-tert-butylphenyl)-4-(trifluoromethyl)cyclohexylamino)-1-(3,5-difluorophenyl)-3-hydroxybutan-2-yl)acetamide]",2.5,–
"CCc1cccc(C2(NCC(O)C(Cc3cc(F)cc(F)c3)NC(C)=O)CCOCC2)c1 (stereo not drawn) [Example 196A-1, N-{1-(3,5-Difluoro-benzyl)-3-[4-(3-ethyl-phenyl)-tetrahydro-pyran-4-ylamino]-2-hydroxy-propyl}-acetamide]",–,3.0 and 2.3 and 2.7
"CC(=O)NC(Cc1ccc(O)cc1)C(O)CNC1(c2cccc(C(C)C)c2)CCCCC1 (stereo not drawn) [Example 196A-2, N-{2-Hydroxy-1-(4-hydroxy-benzyl)-3-[1-(3-isopropyl-phenyl)-cyclohexylamino]-propyl}-acetamide]",–,3.6 and 4.1 and 3.9
"CC(=O)NC(Cc1cccc(F)c1)C(O)CNC1(c2cccc(C(C)C)c2)CCCCC1 (stereo not drawn) [Example 196A-4, N-{1-(3-Fluoro-benzyl)-2-hydroxy-3-[1-(3-isopropyl-phenyl)-cyclohexylamino]-propyl}-acetamide]",–,1.1
"CC(=O)NC(Cc1cc(F)cc(F)c1)C(O)CNC1(c2cccc(C(C)C)c2)CCC2(CC1)OCCO2 (stereo not drawn) [Example 196A-6, N-{1-(3,5-Difluoro-benzyl)-2-hydroxy-3-[8-(3-isopropyl-phenyl)-1,4-dioxa-spiro[4.5]dec-8-ylamino]-propyl}-acetamide]",–,11.4
"CC(=O)NC(Cc1cc(F)cc(F)c1)C(O)CNC1(c2cccc(C(C)C)c2)CCS(=O)(=O)CC1 (stereo not drawn) [Example 196A-9, N-{1-(3,5-Difluoro-benzyl)-2-hydroxy-3-[4-(3-isopropyl-phenyl)-1,1-dioxo-hexahydro-1l6-thiopyran-4-ylamino]-propyl}-acetamide]",–,1.4
"CC(=O)NC(Cc1cc(F)cc(F)c1)C(O)CNC1(c2cccc(C(C)C)c2)CCN(C(C)=O)CC1 (stereo not drawn) [Example 196A-10, N-[3-[1-Acetyl-4-(3-isopropyl-phenyl)-piperidin-4-ylamino]-1-(3,5-difluoro-benzyl)-2-hydroxy-propyl]-acetamide]",–,3.2
"CC(=O)NC(Cc1cc(F)cc(F)c1)C(O)CNC1(c2cccc(C(C)C)c2)CCN(S(C)(=O)=O)CC1 (stereo not drawn) [Example 196A-11, N-{1-(3,5-Difluoro-benzyl)-2-hydroxy-3-[4-(3-isopropyl-phenyl)-1-methanesulfonyl-piperidin-4-ylamino]-propyl}-acetamide]",–,12.7
"CC(=O)NC(Cc1cc(F)cc(F)c1)C(O)CNC1(c2cccc(C(C)C)c2)CCN(C(=O)C(F)(F)F)CC1 (stereo not drawn) [Example 196A-12, N-{1-(3,5-Difluoro-benzyl)-2-hydroxy-3-[4-(3-isopropyl-phenyl)-1-(2,2,2-trifluoro-acetyl)-piperidin-4-ylamino]-propyl}-acetamide]",–,1.1
"CC(=O)NC(Cc1cc(F)cc(F)c1)C(O)CNC1(c2cccc(C(C)C)c2)CCN(C=O)CC1 (stereo not drawn) [Example 196A-13, N-{1-(3,5-Difluoro-benzyl)-3-[1-formyl-4-(3-isopropyl-phenyl)-piperidin-4-ylamino]-2-hydroxy-propyl}-acetamide]",–,33.5
"CCS(=O)(=O)N1CCC(NCC(O)C(Cc2cc(F)cc(F)c2)NC(C)=O)(c2cccc(C(C)(C)C)c2)CC1 (stereo not drawn) [Example 196A-15, N-[3-[4-(3-tert-Butyl-phenyl)-1-ethanesulfonyl-piperidin-4-ylamino]-1-(3,5-difluoro-benzyl)-2-hydroxy-propyl]-acetamide]",–,13.1
"CC(=O)NC(Cc1cc(F)cc(F)c1)C(O)CNC1(c2cccc(-c3ccsc3)c2)CCC(=O)CC1 (stereo not drawn) [Example 196A-19, N-(1-(3,5-difluorophenyl)-3-hydroxy-4-(4-oxo-1-(3-(thiophen-3-yl)phenyl)cyclohexylamino)butan-2-yl)acetamide]",–,4.4
"CC(=O)NC(Cc1cc(F)cc(F)c1)C(O)CNC1(c2cccc(C(C)(C)C)c2)CCCN(C)C1 (stereo not drawn) [Example 196A-40, N-(4-(3-(3-tert-butylphenyl)-1-methylpiperidin-3-ylamino)-1-(3,5-difluorophenyl)-3-hydroxybutan-2-yl)acetamide]",–,">2,0"
"CC(=O)NC(Cc1cc(F)cc(F)c1)C(O)CNC1(c2cccc(Br)c2)CCC2(CC1)OCCO2 (stereo not drawn) [Example 196A-47, N-[3-[8-(3-Bromo-phenyl)-1,4-dioxa-spiro[4.5]dec-8-ylamino]-1-(3,5-difluoro-benzyl)-2-hydroxy-propyl]-acetamide]",–,1.7
"CC(=O)NC(Cc1cc(F)cc(F)c1)C(O)CNC1(c2cccc(C(C)(C)C)c2)CCC(C#N)CC1 (stereo not drawn) [Example 196A-48, N-[3-[1-(3-tert-Butyl-phenyl)-4-cyano-cyclohexylamino]-1-(3,5-difluoro-benzyl)-2-hydroxy-propyl]-acetamide]",–,1.7
"CC(=O)NC(Cc1cc(F)cc(F)c1)C(O)CNC1(c2cccc(-c3ccsc3)c2)CCC(=O)CC1 (stereo not drawn) [Example 196A-49, N-{1-(3,5-Difluoro-benzyl)-2-hydroxy-3-[4-oxo-1-(3-thiophen-3-yl-phenyl)-cyclohexylamino]-propyl}-acetamide]",–,4.4
